Laboratory results: patent US7361686B2, “Compounds for the treatment of metabolic disorders” (Wellstat Therapeutics Corporation, priority 2003, dated 2008)

Test system: db/db mice
Test: Antidiabetic effects in db/db mice (serum chemistry after 4 weeks of daily oral dosing)
Type: in vivo
Details: for blood glucose, effect in words: versus vehicle; for Triglycerides ± SEM (serum) / Glucose ± SEM (serum glucose) / Free Fatty Acids ± SEM (serum): male obese db/db mice, 100 mg/kg daily oral, treatment for 4 weeks, mean ± SEM; for Triglycerides ± SEM (serum): vehicle 621 ± 54, lean 96.4 ± 6.4; for Glucose ± SEM (serum glucose): vehicle 747 ± 19, lean control 193 ± 11; for Free Fatty Acids ± SEM (serum): vehicle 2415 ± 134, lean 1637 ± 105
Text: Db/db mice have a defect in leptin signaling, leading to hyperphagia, obesity and diabetes. Moreover, unlike ob/ob mice on a C57BL/6J background, db/db mice on a C57BLKS background undergo failure of their insulin-producing pancreatic islet cells, resulting in progression from hyperinsulinemia (associated with peripheral insulin resistance) to hypoinsulinemic diabetes.
Male obese (db/db homozygote) C57B/Ksola mice approximately 8 weeks of age, were obtained from Jackson Labs (Bar Harbor, Me.) and randomly assigned into groups of 5-7 animals such that the body weights (40-45 g) and serum glucose levels (≧300 mg/dl in fed state) were similar between groups; male lean (db/+heterozygote) mice served as cohort controls. A minimum of 7 days was allowed for adaptation after arrival. All animals were maintained under controlled temperature (23° C.), relative humidity (50±5%) and light (7:00-19:00), and allowed free access to standard chow (Formulab Diet 5008, Quality Lab Products, Elkridge, Md.) and water.
Treatment cohorts were given daily oral doses of vehicle, compound CO (100 mg/kg), or Compound CP (100 mg/kg) for 4 weeks. At the end of the treatment period 100 μl of venous blood was withdrawn in a heparinized capillary tube from the retro-orbital sinus for serum chemistry analysis.

[1] = db/db mice, after 4 weeks of daily oral dosing, 100 mg/kg
[2] = db/db mice, after 4 weeks of daily oral dosing, 100 mg/kg, versus vehicle-treated db/db mice

Row | SMILES | blood glucose, effect in words [1] | serum triglycerides, effect in words [2] | Triglycerides ± SEM (serum) | Glucose ± SEM (serum glucose) | Free Fatty Acids ± SEM (serum) | serum free fatty acids, effect in words [2]
1 | CCOC(=O)CC/C=C/c1cccc(OCc2c(C)cccc2C)c1 [Cpd. CO, 5-[3-(2,6-Dimethylbenzyloxy)-phenyl]-pent-4-enoic acid ethyl ester] | significant reduction | reduced | 320 ± 30 mg/dL | 651 ± 36 mg/dL | 2689 ± 70 µM | 
2 | CCOC(=O)CCC/C=C/c1cccc(OCc2c(C)cccc2C)c1 [Cpd. CP, 6-[3-(2,6-Dimethylbenzyloxy)-phenyl]-hex-5-enoic acid ethyl ester] | significant reduction | reduced | 150 ± 34 mg/dL | 404 ± 101 mg/dL | 1765 ± 39 µM | reduced
